pKi: −log10 of the molar value.

Experiment [1] deals with T1, DDR1 (Homo sapiens, UniProt Q08345).
T1 construct: purchased Carna Biosciences
The experiment is described as follows: LanthaScreen Europium Kinase Binding assay, DDR1. Conditions: 5 nM DDR1, 20 nM Kinase Tracer 178, 1 h at rt; Ki from IC50 by Cheng-Prusoff; read-out: Ki DDR1. As for the experimental part:
(§1) DDR1 and DDR2 binding assays were performed using Life Technologies LanthaScreen™ Europium Kinase Binding assay. The compounds were incubated with 5 nM DDR1 (Carna Biosciences) or 5 nM DDR2 (Life Technologies) for 1 h at rt in white 384-well OptiPlate (PerkinElmer), containing 20 nM or 10 nM Kinase Tracer 178 respectively and 2 nM Europium labelled anti-GST antibody (Life Technologies) in assay buffer (50 mM HEPES pH 7.5, 10 mM MgCI2, 1 mM EGTA and 0.01% BRIJ35). The ratio of fluorescence emission 665 nm/615 nm after excitation at 340 nm was obtained using the Tecan Spark 20M plate reader. IC50 values were determined in GraphPad Prism 7.0 software, using 4 parameter model: log(inhibitor) vs. response. IC50 values were converted in Ki using the Cheng-Prusoff equation (Ki=IC50/(1+[Tracer]/Kd).
A general note: TR-FRET usually uses a lanthanide donor and a delayed reading to cut background.

In experiment [2] the target is T2, DDR2 (Homo sapiens, UniProt Q16832).
T2 construct: purchased Life Technologies
T2 sequence (Q16832 22-855): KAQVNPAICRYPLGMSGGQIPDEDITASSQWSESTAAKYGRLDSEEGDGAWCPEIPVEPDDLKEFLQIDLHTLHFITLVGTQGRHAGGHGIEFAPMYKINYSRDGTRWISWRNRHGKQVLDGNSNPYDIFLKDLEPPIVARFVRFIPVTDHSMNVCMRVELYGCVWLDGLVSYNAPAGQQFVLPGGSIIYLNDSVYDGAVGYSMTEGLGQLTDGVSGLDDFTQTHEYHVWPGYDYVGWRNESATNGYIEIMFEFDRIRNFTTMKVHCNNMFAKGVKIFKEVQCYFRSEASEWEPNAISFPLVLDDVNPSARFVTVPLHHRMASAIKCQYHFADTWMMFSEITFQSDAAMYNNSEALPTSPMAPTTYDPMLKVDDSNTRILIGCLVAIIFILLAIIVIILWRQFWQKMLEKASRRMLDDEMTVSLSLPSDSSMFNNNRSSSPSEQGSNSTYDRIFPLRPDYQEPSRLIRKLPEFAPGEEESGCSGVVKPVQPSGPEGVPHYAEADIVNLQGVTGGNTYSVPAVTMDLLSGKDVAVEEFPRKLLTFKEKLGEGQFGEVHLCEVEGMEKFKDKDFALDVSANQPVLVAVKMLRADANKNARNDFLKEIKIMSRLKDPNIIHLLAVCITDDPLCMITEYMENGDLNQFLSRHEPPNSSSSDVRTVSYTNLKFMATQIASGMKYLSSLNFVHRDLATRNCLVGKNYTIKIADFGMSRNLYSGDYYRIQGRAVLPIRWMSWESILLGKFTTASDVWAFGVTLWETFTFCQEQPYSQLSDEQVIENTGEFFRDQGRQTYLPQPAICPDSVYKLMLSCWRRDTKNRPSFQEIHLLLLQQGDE
The experiment is described as follows: LanthaScreen Europium Kinase Binding assay, DDR2. The following applies: 5 nM DDR2, 10 nM Kinase Tracer 178, 1 h at rt; Ki from IC50 by Cheng-Prusoff; read-out: Ki DDR2. As for the experimental part: as §1

T1 sequence (Q08345 19-913): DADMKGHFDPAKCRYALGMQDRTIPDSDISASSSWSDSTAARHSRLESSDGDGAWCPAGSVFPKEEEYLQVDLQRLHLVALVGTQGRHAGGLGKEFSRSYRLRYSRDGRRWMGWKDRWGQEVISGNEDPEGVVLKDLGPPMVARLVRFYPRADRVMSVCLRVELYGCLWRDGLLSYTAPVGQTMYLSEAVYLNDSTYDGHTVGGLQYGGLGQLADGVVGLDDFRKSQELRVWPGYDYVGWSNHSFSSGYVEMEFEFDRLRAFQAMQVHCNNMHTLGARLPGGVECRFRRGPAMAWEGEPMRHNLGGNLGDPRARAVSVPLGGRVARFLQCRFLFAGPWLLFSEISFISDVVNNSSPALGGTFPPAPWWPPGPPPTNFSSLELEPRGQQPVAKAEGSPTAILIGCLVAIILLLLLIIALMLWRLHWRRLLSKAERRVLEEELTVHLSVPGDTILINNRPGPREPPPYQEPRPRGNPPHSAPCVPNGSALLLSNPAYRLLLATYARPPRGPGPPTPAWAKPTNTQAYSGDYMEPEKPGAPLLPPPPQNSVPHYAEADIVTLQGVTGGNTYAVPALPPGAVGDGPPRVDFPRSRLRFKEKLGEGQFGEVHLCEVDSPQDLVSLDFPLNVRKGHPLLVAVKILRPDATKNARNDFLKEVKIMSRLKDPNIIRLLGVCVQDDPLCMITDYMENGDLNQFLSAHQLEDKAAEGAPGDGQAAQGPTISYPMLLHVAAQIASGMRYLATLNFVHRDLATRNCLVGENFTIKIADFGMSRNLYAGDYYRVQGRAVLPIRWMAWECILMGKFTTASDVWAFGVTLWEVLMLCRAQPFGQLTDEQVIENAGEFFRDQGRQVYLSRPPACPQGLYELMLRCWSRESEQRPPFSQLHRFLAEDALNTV

Turning to `Cc1ccc(C(=O)Nc2cncc(C(F)(F)F)c2)cc1[C@@H]1CCN(c2cncc(C(=O)NC3COC3)c2)C1` [Example 38, (S)-5-(3-(2-methyl-5-((5-(trifluoromethyl)pyridin-3-yl)carbamoyl)phenyl)pyrrolidin-1-yl)-N-(oxetan-3-yl)nicotinamide], the pKi in experiment [1] and in experiment [2] was over 8.30 in each case.

Regarding `O=C(Nc1cncc(C(F)(F)F)c1)c1ccc(OC(F)F)c(C2CCN(c3cncnc3)C2)c1` (single isomer, unassigned) [Example 116, 4-(difluoromethoxy)-3-(1-(pyrimidin-5-yl)pyrrolidin-3-yl)-N-(5-(trifluoromethyl)pyridin-3-yl)benzamide], the pKi in experiment [1] and in experiment [2] was over 8.30 throughout.

As to `COc1ccc(C(=O)Nc2cncc(C(F)(F)F)c2)cc1C1CCN(c2cncnc2)C1` (racemic) [Example 111, 4-methoxy-3-(1-(pyrimidin-5-yl)pyrrolidin-3-yl)-N-(5-(trifluoromethyl)pyridin-3-yl)benzamide], the pKi in experiment [1] was over 8.30; in experiment [2], 7.60 to 8.30.

With `CNC(=O)c1cncc(N2CC[C@@H](c3cc(C(=O)Nc4cncc(C(F)(F)F)c4)ccc3C)C2)c1` [Example 29, (S)-N-methyl-5-(3-(2-methyl-5-((5-(trifluoromethyl)pyridin-3-yl)carbamoyl)phenyl)pyrrolidin-1-yl)nicotinamide], the pKi in experiment [1] and in experiment [2] was over 8.30 in each case.

For `COc1ccc(C(=O)Nc2cncc(C(F)(F)F)c2)cc1C1CCN(c2cnn3cccnc23)C1` (single isomer, unassigned) [Example 115, 4-methoxy-3-(1-(pyrazolo[1,5-a]pyrimidin-3-yl)pyrrolidin-3-yl)-N-(5-(trifluoromethyl)pyridin-3-yl)benzamide], the pKi in experiment [1] was over 8.30; in experiment [2], 7.60 to 8.30.

As for `NC(=O)c1cc(N2CCC(c3cc(C(=O)Nc4cncc(C(F)(F)F)c4)ccc3OC(F)F)C2)ccn1` (single isomer, unassigned) [Example 119, 4-(3-(2-(difluoromethoxy)-5-((5-(trifluoromethyl)pyridin-3-yl)carbamoyl)phenyl)pyrrolidin-1-yl)picolinamide], the pKi in experiment [1] is over 8.30; in experiment [2], 7.60 to 8.30.

For `Cc1ccc(C(=O)Nc2cc(C(C)(C)C)on2)cc1[C@@H]1CCN(c2cncc(C(N)=O)c2)C1` [Example 11, (S)-5-(3-(5-((5-(tert-butyl)isoxazol-3-yl)carbamoyl)-2-methylphenyl)pyrrolidin-1-yl)nicotinamide], the negative-log Ki (pKi) in experiment [1] and in experiment [2] was over 8.30 throughout.

`CCc1cc(NC(=O)c2ccc(C)c([C@@H]3CCN(c4cnn5ccncc45)C3)c2)no1` [Example 96, (S)-N-(5-ethylisoxazol-3-yl)-4-methyl-3-(1-(pyrazolo[1,5-a]pyrazin-3-yl)pyrrolidin-3-yl)benzamide]: the pKi in experiment [1] and in experiment [2] was over 8.30 each time.

As for `COCCNC(=O)c1cncc(N2CC[C@@H](c3cc(C(=O)Nc4cncc(C(F)(F)F)c4)ccc3C)C2)c1` [Example 24, (S)-N-(2-methoxyethyl)-5-(3-(2-methyl-5-((5-(trifluoromethyl)pyridin-3-yl)carbamoyl)phenyl)pyrrolidin-1-yl)nicotinamide], the pKi in experiment [1] and in experiment [2] was over 8.30 throughout.

`Cc1ccc(C(=O)Nc2cncc(C(F)(F)F)c2)cc1[C@@H]1CCN(c2cncc(C(N)=O)c2)C1` [Example 1, (S)-5-(3-(2-methyl-5-((5-(trifluoromethyl)pyridin-3-yl)carbamoyl)phenyl)pyrrolidin-1-yl)nicotinamide]: the pKi in experiment [1] and in experiment [2] was over 8.30 throughout.

`COCCOc1cncc(N2CC[C@@H](c3cc(C(=O)Nc4cncc(C(F)(F)F)c4)ccc3C)C2)c1` [Example 79, (S)-3-(1-(5-(2-methoxyethoxy)pyridin-3-yl)pyrrolidin-3-yl)-4-methyl-N-(5-(trifluoromethyl)pyridin-3-yl)benzamide]: the pKi is over 8.30 in experiment [1] and 7.60 to 8.30 in experiment [2].

`Cc1ccc(C(=O)Nc2cc(C(C)(C)C)n(C)n2)cc1[C@@H]1CCN(c2ccnc(C(N)=O)c2)C1` [Example 52, (S)-4-(3-(5-((5-(tert-butyl)-1-methyl-1H-pyrazol-3-yl)carbamoyl)-2-methylphenyl)pyrrolidin-1-yl)picolinamide]: the pKi in experiment [1] was over 8.30; in experiment [2], 7.60 to 8.30.

Turning to `Cc1ccc(C(=O)Nc2cncc(C(F)(F)F)c2)cc1[C@@H]1CCN(c2cnc3[nH]ncc3c2)C1` [Example 43, 4-methyl-3-[(3S)-1-(1H-pyrazolo[3,4-b]pyridin-5-yl)pyrrolidin-3-yl]-N-[5-(trifluoromethyl)-3-pyridyl]benzamide], the negative-log Ki (pKi) in experiment [1] and in experiment [2] was over 8.30 in each case.

For `Cc1ccc(C(=O)Nc2cc(C(C)(C)C(F)(F)F)on2)cc1[C@@H]1CCN(c2cncc(C(N)=O)c2)C1` [Example 4, (S)-5-(3-(2-methyl-5-((5-(1,1,1-trifluoro-2-methylpropan-2-yl)isoxazol-3-yl)carbamoyl)phenyl)pyrrolidin-1-yl)nicotinamide], the negative logarithm of the Ki (pKi) in experiment [1] and in experiment [2] was over 8.30 each time.

With `Cc1ccc(C(=O)Nc2ccc(OC(F)(F)F)cn2)cc1[C@@H]1CCN(c2cncnc2)C1` [Example 20, (S)-4-methyl-3-(1-(pyrimidin-5-yl)pyrrolidin-3-yl)-N-(5-(trifluoromethoxy)pyridin-2-yl)benzamide], the pKi in experiment [1] was over 8.30; in experiment [2], 7.60 to 8.30.

Regarding `Cc1ccc(C(=O)Nc2ccc(OC(F)(F)F)cn2)cc1[C@@H]1CCN(c2cncc(C(N)=O)c2)C1` [Example 10, (S)-5-(3-(2-methyl-5-((5-(trifluoromethoxy)pyridin-2-yl)carbamoyl)phenyl)pyrrolidin-1-yl)nicotinamide], the pKi in experiment [1] was over 8.30; in experiment [2], 7.60 to 8.30.

As for `Cc1ccc(C(=O)Nc2cc(C(C)(C)C)n(C)n2)cc1[C@@H]1CCN(c2cncnc2)C1` [Example 13, (S)-N-(5-(tert-butyl)-1-methyl-1H-pyrazol-3-yl)-4-methyl-3-(1-(pyrimidin-5-yl)pyrrolidin-3-yl)benzamide], the pKi in experiment [1] and in experiment [2] was over 8.30 throughout.

As for `Cc1ccc(C(=O)Nc2cc(C(F)(F)F)nn2C)cc1[C@@H]1CCN(c2cncnc2)C1` [Example 68, (S)-4-methyl-N-(1-methyl-3-(trifluoromethyl)-1H-pyrazol-5-yl)-3-(1-(pyrimidin-5-yl)pyrrolidin-3-yl)benzamide], the pKi in experiment [1] and in experiment [2] was 7.60 to 8.30 each time.

Consider `Cc1ccc(C(=O)Nc2cc(C(F)F)ccn2)cc1[C@@H]1CCN(c2cncnc2)C1` [Example 67, (S)-N-(4-(difluoromethyl)pyridin-2-yl)-4-methyl-3-(1-(pyrimidin-5-yl)pyrrolidin-3-yl)benzamide], for which the pKi in experiment [1] and in experiment [2] was over 8.30 throughout.

`CNC(=O)c1cc(N2CCC(c3cc(C(=O)Nc4cncc(C(F)(F)F)c4)ccc3OC)C2)ccn1` (stereo not shown) [Example 127, 4-(3-(2-methoxy-5-((5-(trifluoromethyl)pyridin-3-yl)carbamoyl)phenyl)pyrrolidin-1-yl)-N-methylpicolinamide]: the pKi in experiment [1] is over 8.30; in experiment [2], 7.60 to 8.30.

The pKi is the negative decadic logarithm of the Ki, by convention in mol/L.
